pIC50: −log10 of the molar value.

This experiment is described as follows: Plasma-Based Clot Lysis Assay: The clot-lysis test system configures the kinetics of clot formation and degradation in vitro and allows quantifying modulation of the process by selected test compounds.The test compounds were dissolved in 1% acetic acid and further complemented with an equal volume of DMSO. The resulting stock solutions were serially diluted in 0.5% acetic acid/50% DMSO. 1 μL aliquots of these solutions were placed into 384 well microplates (Greiner, black, transparent bottom), followed by 30 μL of diluted human citrated plasma (platelet-poor, final concentration: 5%; supplemented with fibrinogen, final concentration: 3 μM; dilution buffer: 20 mM HEPES, 150 mM NaCl, 0.01% Brij (pH 7)). The reactions were started by addition of 20 μL of CaCl2 (final concentration: 10 mM), and tPA (tissue plasminogen activator, final concentration: 0.2 nM) in dilution buffer, followed by an additional volume of 20 μL dilution buffer for improved mixing. The reactions were incubated at 37° C. Clot formation and degradation was monitored spectrophotometrically by kinetic optical density measurements at 405 nm. IC50 values were determined by comparing the resulting time courses with the time course of a blank control reaction.
Take `O=c1cc(C2CCNCC2)n2nc3cc(F)cnc3c2[nH]1`: the negative logarithm of the IC50 (pIC50) is 7.68. On to `Nc1cccc2nn3c(C4CCNCC4)cc(=O)[nH]c3c12`, for which the negative-log IC50 (pIC50) was 7.46.

With `O=c1cc(C2CCNCC2)n2nc3cncc(Br)c3c2[nH]1`, the negative-log IC50 (pIC50) is 7.00.

Values taken from ChEMBL document CHEMBL5727727, “(Aza)pyridopyrazolopyrimidinones and indazolopyrimidinones and their use” (2020).
